Laboratory results reported in US12559504B2, “Benzotriazole derivative” (UBE CORPORATION, priority 2019, dated 2026).

Experiments:
[1] = tested on: NQO1; test: NQO1 enzyme induction test (in vitro) in Hepa1c1c7 cells; type: cell-based; conditions: Mus musculus, Hepa-1c1c7, 48 h, concentration to elevate the NQO1 activity by 1.5 times, about 48 hours, read-out: EC150
How it was run: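 Mouse Hepa1c1c7 cells treated about 48 h with compound (0.1% DMSO final), then lysed. NQO1 activity read as MTT reduction at 540 nm with menadione substrate, 5 min at room temperature, and corrected for cell number by CellTiter-Glo. EC150 is the concentration raising NQO1 activity 1.5-fold.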

[2] = Metabolism test using human liver microsome fractions; type: in vitro ADME; conditions: human liver microsomes, test compound 10 μmol/L, NADPH and UDP-glucuronic acid, 37° C.
How it was run: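 Human or monkey liver microsomes (1 mg protein) with NADPH-regenerating system plus UDP-glucuronic acid/UGT mix, 37 °C; compound at 10 μmol/L final. Samples at 0–30 min quenched in acetonitrile, UV-HPLC; elimination rate (pmol/min/mg-P) from linear slope of residual amount over time.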

[3] = tested on: NQO1; test: NQO1 expression induction test in mouse kidney (single administration); type: in vivo; conditions: Mus musculus, po, 6 h, BALB/c mouse kidney, 6 hours after administration, ratio to control group
How it was run: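 Female BALB/c mice received a single oral dose of compound in 0.5% methylcellulose, with untreated mice as controls. Six hours later, left-kidney NQO1 mRNA was measured by SYBR real-time RT-PCR normalised to GAPDH. Induction was expressed as the ratio of mean treated to mean control expression.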

[4] = biological target: T1, GST fusion human Keap1 (amino acid residue: 325-624) protein (Homo sapiens, UniProt Q14145); test: Keap1-Nrf2 binding inhibition test (fluorescence polarization); conditions: compound concentration of 100 nM; read-out: inhibition rate
T1 construct: GST fusion human Keap1 (amino acid residue: 325-624) protein; purchased Protein tech Ag0779
T1 sequence (Q14145 325-624): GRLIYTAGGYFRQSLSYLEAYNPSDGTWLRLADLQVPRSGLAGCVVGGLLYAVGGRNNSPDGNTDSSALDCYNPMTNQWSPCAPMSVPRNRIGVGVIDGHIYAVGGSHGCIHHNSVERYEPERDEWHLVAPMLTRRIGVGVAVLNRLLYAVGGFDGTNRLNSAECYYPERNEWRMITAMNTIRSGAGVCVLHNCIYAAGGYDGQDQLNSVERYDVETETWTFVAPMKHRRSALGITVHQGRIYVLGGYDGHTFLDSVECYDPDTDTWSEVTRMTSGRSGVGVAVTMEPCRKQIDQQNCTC
How it was run: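 Fluorescence polarization with FITC-labelled Nrf2 peptide (FITC-Ahx-LDEETGEFL-NH2) and GST-human Keap1 (325-624) in 20 mM Tris pH 7.5, 150 mM NaCl, 0.05% Tween 20, 5 mM DTT, BSA; 30 min at room temperature, ex 482/em 530 nm. Percent inhibition at 100 nM compound, Keap1-free wells = 100%.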

Structure (SMILES) | inhibition at 0.1 µM [4] | EC (1.5-fold NQO1 activity) [1] | Human metabolic rate [2] | fold induction at 30 mg/kg [3] | fold induction at 20 mg/kg [3]
CC[C@@H]1CN(Cc2cc(C(c3ccc4c(nnn4C)c3C)C(C)(C)C(=O)O)ccc2C)Cc2cc3c(F)cccc3cc2O1 (stereo partly drawn) [Example 54-(b), 3-(1,4-dimethyl-1H-benzo[d][1,2,3]triazol-5-yl)-3-(3-(((R)-2-ethyl-7-fluoro-2,3-dihydronaphtho[2,3-f][1,4]oxazepin-4(5H)-yl)methyl)-4-methylphenyl)-2,2-dimethylpropanoic Acid] | ≥ 50% | 0.005 to 0.05 µM | B (100≤metabolic rate<150 pmol/min/mg protein) | 3 to 6 | 
CC[C@@H]1CN(Cc2cc(C(c3ccc4c(nnn4C)c3C)C(C)(C)C(=O)O)ccc2C)Cc2ccc3cnccc3c2O1.O=C(O)C(F)(F)F.O=C(O)C(F)(F)F (stereo partly drawn) [Example 55-(b), 3-(1,4-dimethyl-1H-benzo[d][1,2,3]triazol-5-yl)-3-(3-(((R)-2-ethyl-2,3-dihydro-[1,4]oxazepino[7,6-f]isoquinolin-4(5H)-yl)methyl)-4-methylphenyl)-2,2-dimethylpropanoic Acid Ditrifluoroacetate] | ≥ 50% | 0.0005 to 0.005 µM | C (150≤metabolic rate<200 pmol/min/mg protein) | ≤ 3 | 
CC[C@@H]1CN(Cc2cc(C(c3ccc4c(nnn4C)c3C)C(C)(C)C(=O)O)ccc2C)Cc2nc3ccccc3cc2O1 (stereo partly drawn) [Example 10-(b), 3-(1,4-dimethyl-1H-benzo[d][1,2,3]triazol-5-yl)-3-(3-(((R)-2-ethyl-2,3-dihydro-[1,4]oxazepino[6,7-b]quinolin-4 (5H)-yl)methyl)-4-methylphenyl)-2,2-dimethylpropanoic Acid] | ≥ 50% | 0.0005 to 0.005 µM | C (150≤metabolic rate<200 pmol/min/mg protein) | > 6 | 
CC[C@@H]1CN(Cc2cc(C(c3ccc4c(nnn4C)c3C)C(C)(C)C(=O)O)ccc2C)Cc2cc3c(cc2O1)CCCC3 (stereo partly drawn) [Example 4-(b), 3-(1,4-dimethyl-1H-benzo[d][1,2,3]triazol-5-yl)-3-(3-(((R)-2-ethyl-2,3,7,8,9,10-hexahydronaphtho[2,3-f][1,4]oxazepin-4(5H)-yl)methyl)-4-methylphenyl)-2,2-dimethylpropanoic Acid] | ≥ 50% | 0.005 to 0.05 µM | B (100≤metabolic rate<150 pmol/min/mg protein) | > 6 | 
CC[C@@H]1CN(Cc2cc(C(c3ccc4c(nnn4C)c3C)C(C)(C)C(=O)O)ccc2C)Cc2c(ccc3ncccc23)O1 (stereo partly drawn) [Example 18-(b), 3-(1,4-dimethyl-1H-benzo[d][1,2,3]triazol-5-yl)-3-(3-(((R)-4-ethyl-3,4-dihydro-[1,4]oxazepino[6,7-f]quinolin-2(1H)-yl)methyl)-4-methylphenyl)-2,2-dimethylpropanoic Acid] | ≥ 50% | 0.005 to 0.05 µM | E (metabolic rate≥250 pmol/min/mg protein) | 3 to 6 | 
CC[C@@H]1CN(Cc2cc(C(c3ccc4c(nnn4C)c3C)C(C)(C)C(=O)O)ccc2C)Cc2cc3cnccc3cc2O1 (stereo partly drawn) [Example 53, 3-(1,4-dimethyl-1H-benzo[d][1,2,3]triazol-5-yl)-3-(3-(((R)-2-ethyl-2,3-dihydro-[1,4]oxazepino[7,6-g]isoquinolin-4 (5H)-yl)methyl)-4-methylphenyl)-2,2-dimethylpropanoic Acid] | ≥ 50% | 0.0005 to 0.005 µM | C (150≤metabolic rate<200 pmol/min/mg protein) | > 6 | 
CC[C@@H]1CN(Cc2cc(C(c3ccc4c(nnn4C)c3C)C(C)(C)C(=O)O)ccc2C)Cc2c(ccc3cn(C)nc23)O1 (stereo partly drawn) [Example 22-(b), 3-(1,4-dimethyl-1H-benzo[d][1,2, 3)triazol-5-yl)-3-(3-(((R)-7-ethyl-2-methyl-2,7,8,10-tetrahydro-9H-(1,4]oxazepino[7,6-g]indazol-9-yl)methyl)-4-methylphenyl)-2,2-dimethylpropanoic Acid] | ≥ 50% | 0.0005 to 0.005 µM | B (100≤metabolic rate<150 pmol/min/mg protein) | > 6 | 
CC[C@@H]1CN(Cc2cc(C(CC(=O)O)c3ccc4c(nnn4C)c3C)ccc2C)Cc2cc3ncccc3cc2O1 (stereo partly drawn) [Example 56-(b), 3-(1,4-dimethyl-1H-benzo[d][1,2,3]triazol-5-yl)-3-(3-(((R)-2-ethyl-2,3-dihydro-[1,4]oxazepino[7,6-g]quinolin-4(5H)-yl)methyl)-4-methylphenyl)propanoic acid] | ≥ 50% | 0.0005 to 0.005 µM | E (metabolic rate≥250 pmol/min/mg protein) | 3 to 6 | 
CC[C@@H]1CN(Cc2cc(C(c3ccc4c(nnn4C)c3C)C(C)(C)C(=O)O)ccc2C)Cc2ccc3c(c2O1)CCCC3 (stereo partly drawn) [Example 7-(b), 3-(1,4-dimethyl-1H-benzo[d][1,2,3]triazol-5-yl)-3-(3-(((R)-2-ethyl-2,3,8,9,10,11-hexahydronaphtho[2,1-f][1,4]oxazepin-4(5H)-yl)methyl)-4-methylphenyl)-2,2-dimethylpropanoic Acid] | ≥ 50% | 0.005 to 0.05 µM | B (100≤metabolic rate<150 pmol/min/mg protein) | 3 to 6 | 

The next lines start with results.

inhibition at 0.1 µM [4] | Structure (SMILES) | EC (1.5-fold NQO1 activity) [1] | Human metabolic rate [2] | fold induction at 30 mg/kg [3] | fold induction at 20 mg/kg [3]
≥ 50% | Cc1ccc(C(c2ccc3c(nnn3C)c2C)C(C)(C)C(=O)O)cc1CN1Cc2cc3ncccc3cc2OC(C)(C)C1 (stereo not shown) [Example 60-(b), 3-(1,4-dimethyl-1H-benzo[d][1,2,3]triazol-5-yl)-3-(3-((2,2-dimethyl-2,3-dihydro-[1,4]oxazepino[7,6-g]quinolin-4 (5H)-yl)methyl)-4-methylphenyl)-2,2-dimethylpropanoic Acid] | 0.0005 to 0.005 µM | D (200≤metabolic rate<250 pmol/min/me protein) | ≤ 3 | 
≥ 50% | Cc1ccc(C(c2ccc3c(nnn3C)c2C)C(C)(C)C(=O)O)cc1CN1Cc2cc3ncccc3cc2OC2(CC2)C1 (stereo not shown) [Example 76-(b), 3-(3-((3′H-spiro[cyclopropane-1,2′-[1,4]oxazepino[7,6-g]quinoline]-4′ (5′H)-yl)methyl)-4-methylphenyl)-3-(1,4-dimethyl-1H-benzo[d][1,2,3]triazol-5-yl)-2,2-dimethylpropanoic Acid] | 0.0005 to 0.005 µM | B (100≤metabolic rate<150 pmol/min/mg protein) |  | > 6
≥ 50% | CC[C@@H]1CN(Cc2cc(C(c3ccc4c(nnn4C)c3C)C(C)(C)C(=O)O)ccc2C)Cc2cc3nccc(Cl)c3cc2O1 (stereo partly drawn) [Example 69, 3-(3-(((R)-10-chloro-2-ethyl-2,3-dihydro-[1,4]oxazepino[7,6-g]quinolin-4 (5H)-yl)methyl)-4-methylphenyl)-3-(1,4-dimethyl-1H-benzo[d][1,2, 3]triazol-5-yl)-2,2-dimethylpropanoic Acid] | < 0.0005 µM | D (200≤metabolic rate<250 pmol/min/me protein) |  | 3 to 6
≥ 50% | CC[C@@H]1CN(Cc2cc(C(c3ccc4c(nnn4CC)c3C)C(C)(C)C(=O)O)ccc2C)Cc2cc3ncccc3cc2O1 (stereo partly drawn) [Example 59-(b), 3-(3-(((R)-2-ethyl-2,3-dihydro-[1,4]oxazepino[7,6-g]quinolin-4(5H)-yl)methyl)-4-methylphenyl)-3-(1-ethyl-4-methyl-1H-benzo[d][1,2,3]triazol-5-yl)-2,2-dimethylpropanoic Acid] | 0.0005 to 0.005 µM | D (200≤metabolic rate<250 pmol/min/me protein) | > 6 | 
